Laboratory results from patent publication US9107415B2, “2-(substituted-phenyl)-cyclopentane-1,3-dione compounds, and derivatives thereof” (Syngenta Limited, priority 2011, dated 2015).

How the values were obtained:
Assay type in all cases: in vivo
[1] = test system: Alopecurus myosuroides (ALOMY); test: Biological Example 1 glasshouse screen, pre-emergence herbicidal activity; settings: 312 h, application rate 250 g/ha, evaluated after 13 days, read-out: ALOMY percentage phytotoxicity
How it was run: (§1)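 Potted test species received a foliar or soil spray of active ingredient in acetone/water (50:50), 0.5% Tween 20, at 1 or 8 days after sowing for pre- and post-emergence respectively. Percentage phytotoxicity was assessed by eye after 13 days.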

[2] = test system: Echinochloa crus-galli (ECHCG); test: as above; settings: 312 h, application rate 250 g/ha, evaluated after 13 days, read-out: ECHCG percentage phytotoxicity
How it was run: as §1

[3] = test system: Avena fatua (AVEFA); test: as above; settings: 312 h, application rate 250 g/ha, evaluated after 13 days, read-out: AVEFA percentage phytotoxicity
How it was run: (§2)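 Pots in a glasshouse (24/16°C day/night, 14 h light, 65% humidity) were sprayed one day after sowing (pre-emergence) or after 8 days (post-emergence), using acetone/water (50:50) with 0.5% Tween 20. Phytotoxicity was scored visually as % damage (0-100) 13 days after application.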

[4] = test system: Lolium perenne (LOLPE); test: as above; settings: 312 h, application rate 250 g/ha, evaluated after 13 days, read-out: LOLPE percentage phytotoxicity
How it was run: as §2

[5] = test system: Alopecurus myosuroides (ALOMY); test: Biological Example 1 glasshouse screen, post-emergence herbicidal activity; settings: 312 h, application rate 250 g/ha, evaluated after 13 days, read-out: ALOMY percentage phytotoxicity
How it was run: as §1

[6] = test system: Echinochloa crus-galli (ECHCG); test: as above; settings: 312 h, application rate 250 g/ha, evaluated after 13 days, read-out: ECHCG percentage phytotoxicity
How it was run: as §1

[7] = test system: Avena fatua (AVEFA); test: as above; settings: 312 h, application rate 250 g/ha, evaluated after 13 days, read-out: AVEFA percentage phytotoxicity
How it was run: as §2

[8] = test system: Lolium perenne (LOLPE); test: as above; settings: 312 h, application rate 250 g/ha, evaluated after 13 days, read-out: LOLPE percentage phytotoxicity
How it was run: as §2

[9] = test system: Alopecurus myosuroides (ALOMY); test: Biological Example 4B (not-previously-formulated compounds) post-emergence herbicidal activity on grassy weeds; settings: 14 DAA, technical compound in IF50 + Adigor, mean of two
Procedure: (§3) Seeds of a variety of test species are sown in standard soil in pots. After cultivation for 14 days under controlled conditions in a glasshouse (at 22/16°C., day/night; 16 hours light; 65% humidity), the plants are sprayed with an aqueous spray solution derived from the formulation of the technical active ingredient dissolved in acetone plus IF50 containing
(§4) 10.56 wt % Emulsogen™EL (castor oil ethoxylate, CAS Registry number 61791-12-6)
(§5) 42.22 wt % N-Methyl pyrrolidone
(§6) 42.22 wt % dipropylene glycol monoethyl ether
(§7) at a 1:20 ratio of (technical active ingredient:IF50). The adjuvant Adigor™(an adjuvant containing inter alia methylated rapeseed oil, e.g. available from Syngenta) is added to form a 0.5% v/v solution. The test plants are then grown on under controlled conditions in the glasshouse (at 22/16°C., day/night; 16 hours light; 65% humidity) and are watered twice daily. After 14 days the test is evaluated (100%=total damage to plant; 0%=no damage to plant).
(§8) […] Herbicidal activity (phytotoxicity) is evaluated visually, and an assessed percentage phytotoxicity score is given for each herbicidal application on each plant species (with 100%=total damage to plant; 0%=no damage to plant). Two repetitions are made for each experiment, and the mean herbicidal activity (phytotoxicity) data is reported.
(§9) Test plants: Avena fatua (AVEFA), Lolium multiflorum (LOLMU), Setaria viridis (SETVI), Poa annua (POAAN), Alopecurus myosuroides (ALOMY). All five of these are grassy monocotyledonous weeds.

[10] = test system: Avena fatua (AVEFA); test: as above; settings: 14 DAA, technical compound in IF50 + Adigor, mean of two
Procedure: as §3, §4, §5, §6, §7, §8, §9

[11] = test system: Poa annua (POAAN); test: as above; settings: 14 DAA, technical compound in IF50 + Adigor, mean of two
Procedure: as §3, §4, §5, §6, §7, §8, §9

[12] = test system: Setaria viridis (SETVI); test: as above; settings: 14 DAA, technical compound in IF50 + Adigor, mean of two
Procedure: as §3, §4, §5, §6, §7, §8, §9

[13] = test system: Lolium multiflorum (LOLMU); test: as above; settings: 14 DAA, technical compound in IF50 + Adigor, mean of two
Procedure: as §3, §4, §5, §6, §7
(§10) Post-emergence herbicidal activity (phytotoxicity) data, on certain grassy monocotyledonous weeds and cereal crops in a glasshouse, are measured 14 days after application of the herbicide (14 DAA), for (a) a […] the same time as the herbicide, and (b) for a post-emergence application rate of 30 g/ha of the test herbicide with 50 g/ha of cloquintocet-mexyl safener applied at substantially the same time as the herbicide. Herbicidal activity (phytotoxicity) is evaluated visually, and an assessed percentage phytotoxicity score is given for each herbicidal application on each plant species (with 100%=total damage to plant; 0%=no damage to plant). Two repetitions are made for each experiment, and the mean herbicidal activity (phytotoxicity) data is reported.
as §9

[14] = test system: Winter Barley “Suzuka”; test: Biological Example 4B post-emergence phytotoxicity on cereal crops; settings: 14 DAA, technical compound in IF50 + Adigor, mean of two
Procedure: as §3, §4, §5, §6, §7, §8

[15] = test system: Winter Wheat “Hereward”; test: as above; settings: 14 DAA, technical compound in IF50 + Adigor, mean of two
Procedure: as §3, §4, §5, §6, §7, §8

[16] = test system: Spring Wheat “Teal”; test: as above; settings: 14 DAA, technical compound in IF50 + Adigor, mean of two
Procedure: as §3, §4, §5, §6, §7, §10

[17] = test system: Spring Barley “Harrington”; test: as above; settings: 14 DAA, technical compound in IF50 + Adigor, mean of two
Procedure: as §3, §4, §5, §6, §7
Post-emergence herbicidal activity (phytotoxicity) data, on certain grassy monocotyledonous weeds and cereal crops in a glasshouse, are measured 14 days after application of the herbicide (14 DAA), for (a) a post-emergence application rate of 60 g/ha of the test herbicide with or without 50 g/ha of cloquintocet-mexyl safener applied at substantially the same time as the herbicide, and (b) for a post-emergence application rate of 30 g/ha of the test herbicide with 50 g/ha of cloquintocet-mexyl safener applied at substantially the same time as the herbicide. Herbicidal activity (phytotoxicity) is evaluated visually, and an assessed percentage phytotoxicity score is given for each herbicidal application on each plant species (with 100%=total damage to plant; 0%=no damage to plant). Two repetitions are made for each experiment, and the mean herbicidal activity (phytotoxicity) data is reported.

[18] = test system: Spring Barley “Harrington”; test: as above; settings: cloquintocet-mexyl 50 g/ha, 14 DAA, technical compound in IF50 + Adigor, mean of two
[19] = 7.5 g/ha, cloquintocet-mexyl 50 g/ha
[20] = 15 g/ha, cloquintocet-mexyl 50 g/ha
[21] = 30 g/ha, cloquintocet-mexyl 50 g/ha
[22] = 60 g/ha, cloquintocet-mexyl 0 g/ha
[23] = 60 g/ha, cloquintocet-mexyl 50 g/ha

CC#Cc1cc(C)c(C2C(=O)CC(Cc3ccccn3)C2=O)c(CC)c1 (centres unmarked) [Compound A-26]
pest or weed control at 250 g/ha [1]: 100% | pest or weed control at 250 g/ha [2]: 100% | pest or weed control at 250 g/ha [3]: 100% | pest or weed control at 250 g/ha [4]: 100% | pest or weed control at 250 g/ha [5]: 100% | pest or weed control at 250 g/ha [6]: 100% | pest or weed control at 250 g/ha [7]: 100% | pest or weed control at 250 g/ha [8]: 100% | ALOMY % phytotoxicity [9, 19]: 97% | ALOMY % phytotoxicity [9, 20]: 99% | ALOMY % phytotoxicity [9, 21]: 100% | ALOMY % phytotoxicity [9, 22]: 100% | ALOMY % phytotoxicity [9, 23]: 100% | AVEFA % phytotoxicity [10, 19]: 83% | AVEFA % phytotoxicity [10, 20]: 99% | AVEFA % phytotoxicity [10, 21]: 100% | AVEFA % phytotoxicity [10, 22]: 100% | AVEFA % phytotoxicity [10, 23]: 100% | POAAN % phytotoxicity [11, 19]: 0% | POAAN % phytotoxicity [11, 20]: 13% | POAAN % phytotoxicity [11, 21]: 33% | POAAN % phytotoxicity [11, 22]: 73% | POAAN % phytotoxicity [11, 23]: 70% | SETVI % phytotoxicity [12, 19]: 68% | SETVI % phytotoxicity [12, 20]: 95% | SETVI % phytotoxicity [12, 21]: 100% | SETVI % phytotoxicity [12, 22]: 100% | SETVI % phytotoxicity [12, 23]: 100% | LOLMU % phytotoxicity [13, 19]: 90% | LOLMU % phytotoxicity [13, 20]: 100% | LOLMU % phytotoxicity [13, 21]: 100% | LOLMU % phytotoxicity [13, 22]: 100% | LOLMU % phytotoxicity [13, 23]: 100% | Winter Barley “Suzuka” phytotoxicity (%) [14, 19]: 4% | Winter Barley “Suzuka” phytotoxicity (%) [14, 20]: 53% | Winter Barley “Suzuka” phytotoxicity (%) [14, 21]: 100% | Winter Barley “Suzuka” phytotoxicity (%) [14, 22]: 100% | Winter Barley “Suzuka” phytotoxicity (%) [14, 23]: 100% | Winter Wheat “Hereward” phytotoxicity (%) [15, 19]: 30% | Winter Wheat “Hereward” phytotoxicity (%) [15, 20]: 80% | Winter Wheat “Hereward” phytotoxicity (%) [15, 21]: 90% | Winter Wheat “Hereward” phytotoxicity (%) [15, 22]: 99% | Winter Wheat “Hereward” phytotoxicity (%) [15, 23]: 98% | Spring Wheat “Teal” phytotoxicity (%) [16, 19]: 23% | Spring Wheat “Teal” phytotoxicity (%) [16, 20]: 78% | Spring Wheat “Teal” phytotoxicity (%) [16, 21]: 93% | Spring Wheat “Teal” phytotoxicity (%) [16, 22]: 100% | Spring Wheat “Teal” phytotoxicity (%) [16, 23]: 97% | Spring Barley “Harrington” phytotoxicity (%) [17, 21]: 99% | Spring Barley “Harrington” phytotoxicity (%) [17, 22]: 100% | Spring Barley “Harrington” phytotoxicity (%) [17, 23]: 100% | Spring Barley “Harrington” phytotoxicity (%) ([18]; 7.5 g/ha): 10% | Spring Barley “Harrington” phytotoxicity (%) ([18]; 15 g/ha): 80%
